ChEMBL document CHEMBL1149855, “Dihydrobenzo[c]phenanthridine alkaloids from stem bark of Zanthoxylum nitidum” (J Nat Prod, 2008)
The source made the active and inactive calls.

What was measured:
Type in all cases: functional, cell-based
[1] = system: MCF7; assay: Cytotoxicity against human MCF7 cells up to 29.2 ug/mL after 72 hrs by MTS reduction assay
[2] = system: NCI-H460; assay: Cytotoxicity against human NCI-H460 cells up to 29.2 ug/mL after 72 hrs by MTS reduction assay
[3] = system: SF-268; assay: Cytotoxicity against human SF268 cells up to 29.2 ug/mL after 72 hrs by MTS reduction assay

Measured: Activity

COc1ccc2c(c1OC)[C@@H](CC1=C[C@@H]3[C@@H](CC1)[C@@](C)(OC)CC[C@H]3C(C)C)N(C)c1c-2ccc2cc3c(cc12)OCO3
inactive: [1] | [2] | [3]

COc1ccc2c(c1OC)[C@H](CC1=C[C@H]3[C@H](C(C)C)CC[C@](C)(OC)[C@H]3CC1)N(C)c1c-2ccc2cc3c(cc12)OCO3
inactive: [1] | [2] | [3]

COc1ccc2c(c1OC)[C@H](CC1=C[C@@H]3[C@@H](CC1)[C@](C)(OC)CC[C@H]3C(C)C)N(C)c1c-2ccc2cc3c(cc12)OCO3
inactive: [1] | [2] | [3]

COc1ccc2c(c1OC)[C@@H](CC1=C[C@H]3[C@H](C(C)C)CC[C@](C)(OC)[C@H]3CC1)N(C)c1c-2ccc2cc3c(cc12)OCO3
inactive: [1] | [2] | [3]

COc1ccc2c(c1OC)[C@@H](CC1=C[C@@H]3[C@@H](CC1)[C@](C)(OC)CC[C@H]3C(C)C)N(C)c1c-2ccc2cc3c(cc12)OCO3
inactive: [1] | [2] | [3]
